Source: EP2062885A1, “Acid addition salts of imatinib and formulations comprising the same” (priority 2007, dated 2009)
Where a name gives a salt, the structure may show the parent alone. Read-outs that look alike come from different tables or passages of the source.

Tests used:
[1] = system: Rat; conditions: cited from earlier work
[2] = system: Rabbit; conditions: cited from earlier work
[3] = system: Mouse; conditions: cited from earlier work
[4] = Non-hygroscopicity test (stability chambers, water content by Karl Fischer method); type: physicochemical; conditions: for Final Moisture Content After 24hrs / Initial Moisture Content: Karl Fischer; for hygroscopic properties: assessment in words, comparable to α and β forms of imatinib mesylate; for Initial Moisture Content: before storage in stability chamber
Experimental: The water contents were measured by a well known method, namely Karl Fischer method for determining water quantities.

[5] = system: Quail; conditions: Oral; cited from earlier work

**Q.** Which results are given for `N[C@@H](CC(=O)O)C(=O)O` [Aspartic acid]?
**A.** LD50 ([1]; Oral, Rat): 5000 mg/kg; LD50 ([2]; Skin): 5000 mg/kg

**Q.** For `CC1(C)C2CCC1(CS(=O)(=O)O)C(=O)C2` (stereo not drawn) [Camphor sulfonic acid], which LD50 ([3]; Subcutaneous, Mouse) is on record?
**A.** 2502 mg/kg

**Q.** With `CCCCCCCCCC(=O)O` [Capric acid] as the compound, how does the LD50 ([1]; Oral, Rat) read?
**A.** 3730 mg/kg

**Q.** What about the LD50 ([2]; Oral) of the same compound?
**A.** 1770 mg/kg

**Q.** For `Cc1ccc(NC(=O)c2ccc(CN3CCN(C)CC3)cc2)cc1Nc1nccc(-c2cccnc2)n1.O=C(O)c1cc(=O)[nH]c(=O)[nH]1` [Imatinib Orotate, 4-[(4-Methyl-1-piperazinyl)methyl]-N-[4-methyl-3-[[4-(3-pyridinyl)-2-pyrimidinyl]amino]phenyl]-benzamide, orotate], which “Final Moisture Content After 24hrs” value ([4]; 25°C at humidity of 60%) is on record?
**A.** 0.7%

**Q.** And the “Final Moisture Content After 24hrs” value ([4]; 40 °C at humidity of 75%)?
**A.** 0.7%

**Q.** And the hygroscopic properties [4]?
**A.** considerably low hygroscopic

**Q.** And the “Initial Moisture Content” value [4]?
**A.** 0.4%

**Q.** What does the source list for `Cc1ccc(NC(=O)c2ccc(CN3CCN(C)CC3)cc2)cc1Nc1nccc(-c2cccnc2)n1` [Imatinib Oxalate, 4-[(4-Methyl-1-piperazinyl)methyl]-N-[4-methyl-3-[[4-(3-pyridinyl) -2-pyrimidinyl]amino]phenyl]-benzamide, oxalate]?
**A.** Final Moisture Content After 24hrs ([4]; 25°C at humidity of 60%): 3.4%; Final Moisture Content After 24hrs ([4]; 40 °C at humidity of 75%): 3.6%; hygroscopic properties [4]: considerably low hygroscopic; Initial Moisture Content [4]: 1.6%

**Q.** For `CCCCCCCCCCCC(=O)O` [Lauric acid], which LD50 ([1]; Oral, Rat) is on record?
**A.** 12000 mg/kg

**Q.** And the LD50 ([3]; mouse, in vivo, iv)?
**A.** 131 mg/kg

**Q.** For `CS(=O)(=O)O` [Methanesulfonic acid, reference compound], which LD50 ([1]; rat, in vivo, po) is on record?
**A.** 200 mg/kg

**Q.** What about the LD50 [5] of the same compound?
**A.** 1000 mg/kg

**Q.** Which LD50 ([1]; Oral, Rat) does the source give for `CCCCCCCC/C=C\CCCCCCCC(=O)O` [Oleic acid] here?
**A.** 74000 mg/kg

**Q.** And the LD50 ([3]; Intraperitoneal, Mouse)?
**A.** 282 mg/kg

**Q.** And the LD50 ([3]; Intravenous, Mouse)?
**A.** 230 mg/kg

**Q.** For `O=C(O)c1cc(=O)[nH]c(=O)[nH]1` [Orotic acid], which LD50 ([3]; mouse, in vivo, ip) is on record?
**A.** 841 mg/kg

**Q.** What about the LD50 ([3]; mouse, in vivo, iv) of the same compound?
**A.** 770 mg/kg

**Q.** What about the LD50 ([3]; mouse, in vivo, po) of the same compound?
**A.** 2000 mg/kg

**Q.** What does the source list for `O=C(O)Cc1ccccc1` [Phenyl acetic acid]?
**A.** LD50 ([1]; Intraperitoneal, Rat): 1600 mg/kg; LD50 ([1]; Oral, Rat): 2250 mg/kg

**Q.** What does the source list for `Cc1ccc(S(=O)(=O)O)cc1` [p-Toluene sulfonic acid]?
**A.** LD50 ([1]; Oral, Rat): 2480 mg/kg; LD50 ([3]; Oral, Mouse): 400 mg/kg
